Values after ≈ are worked out from the molar mass of the structure shown. Read-outs that look alike come from different tables or passages of the source.
Legend:
[1] = system: S. pneumoniae (n = 12); assay: MIC broth microdilution at IHMA Europe; format: cell-based; conditions: for MIC: Streptococcus pneumoniae, read-out: MIC
[2] = system: E. faecium (n = 13); assay: MIC broth microdilution at IHMA Europe; format: cell-based; conditions: for MIC: Enterococcus faecium, read-out: MIC
[3] = system: E. faecalis ATCC 29212; parameters: method as in earlier work; conditions: QC range for E. faecalis ATCC 29212, ref CLSI; cited from earlier work
[4] = system: E. coli ATCC 25922; parameters: method as in earlier work; conditions: QC range for E. coli ATCC 25922, ref CLSI; cited from earlier work
[5] = system: Haemophilus influenzae (n = 14); assay: MIC broth microdilution at IHMA Europe; format: cell-based, H. influenzae; conditions: for MIC: Haemophilus influenzae, read-out: MIC
[6] = system: P. aeruginosa ATCC 27853; parameters: method as in earlier work; conditions: QC range for P. aeruginosa ATCC 27853, ref CLSI; cited from earlier work
[7] = system: E. faecalis ATCC 29212; assay: IHMA QC MIC; format: cell-based
Description: Supplement jm2c01905_si_004.xlsx, sheet "QC" | column: MIC [µg/mL]

## C[C@@H](O)[C@H]1C(=O)N2C(C(=O)O)=C(SCCNC=N)C[C@H]12 [Imipenem, imipenem]
[1]; MIC 0.06 µg/mL
  Cumulative % at MIC: 25.0%
  No. of isolates at MIC: 1
[1]; MIC 1 µg/mL
  Cumulative % at MIC: 100.0%
  No. of isolates at MIC: 1
[1]; MIC ≤0.015 µg/mL
  Cumulative % at MIC: 16.7%
  No. of isolates at MIC: 2
[1]; S. pneumoniae IHMA N° 1775387
  MIC: 0.25 µg/mL (≈ 0.835 µM)
[1]; S. pneumoniae IHMA N° 1776057
  MIC: 0.25 µg/mL (≈ 0.835 µM)
[1]; S. pneumoniae IHMA N° 1785617
  MIC: 0.25 µg/mL (≈ 0.835 µM)
[1]; S. pneumoniae IHMA N° 1800765
  MIC: ≤ 0.015 µg/mL
[1]; S. pneumoniae IHMA N° 1811259
  MIC: 0.12 µg/mL (≈ 0.401 µM)
[1]; S. pneumoniae IHMA N° 1831562
  MIC: ≤ 0.015 µg/mL
[1]; S. pneumoniae IHMA N° 1902609
  MIC: 0.12 µg/mL (≈ 0.401 µM)
[1]; S. pneumoniae IHMA N° 1979675
  MIC: 0.25 µg/mL (≈ 0.835 µM)
[1]; S. pneumoniae IHMA N° 1991963
  MIC: 1 µg/mL (≈ 3.34 µM)
[1]; S. pneumoniae IHMA N° 2057487
  MIC: 0.12 µg/mL (≈ 0.401 µM)
[1]; S. pneumoniae IHMA N° 2073087
  MIC: 0.25 µg/mL (≈ 0.835 µM)
[1]; S. pneumoniae IHMA N° 2117109
  MIC: 0.06 µg/mL (≈ 0.2 µM)
[2]; E. faecium IHMA N° 1764866
  MIC: > 32 µg/mL
[2]; E. faecium IHMA N° 1765436
  MIC: 16 µg/mL (≈ 53.4 µM)
[2]; E. faecium IHMA N° 1765746
  MIC: > 32 µg/mL
[2]; E. faecium IHMA N° 1893573
  MIC: > 32 µg/mL
[2]; E. faecium IHMA N° 1893846
  MIC: > 32 µg/mL
[2]; E. faecium IHMA N° 1893942
  MIC: > 32 µg/mL
[2]; E. faecium IHMA N° 1894055
  MIC: > 32 µg/mL
[2]; E. faecium IHMA N° 1897027
  MIC: > 32 µg/mL
[2]; E. faecium IHMA N° 1897101
  MIC: > 32 µg/mL
[2]; E. faecium IHMA N° 1904592
  MIC: > 32 µg/mL
[2]; E. faecium IHMA N° 2075051
  MIC: > 32 µg/mL
[2]; E. faecium IHMA N° 2077718
  MIC: > 32 µg/mL
[2]; E. faecium IHMA N° 2083787
  MIC: > 32 µg/mL
[2]; MIC […] µg/mL
  Cumulative % at MIC: 7.7%
  No. of isolates at MIC: 1
[2]; MIC >32 µg/mL
  Cumulative % at MIC: 100.0%
  No. of isolates at MIC: 12
[3]
  MIC, CLSI Range: 0,5 - 2 µg/mL
[4]
  MIC, CLSI Range: 0,06 - 0,25 µg/mL
[5]; H. influenzae IHMA N° 1227715
  MIC: 1 µg/mL (≈ 3.34 µM)
[5]; H. influenzae IHMA N° 1241620
  MIC: 0.5 µg/mL (≈ 1.67 µM)
[5]; H. influenzae IHMA N° 1244149
  MIC: 0.5 µg/mL (≈ 1.67 µM)
[5]; H. influenzae IHMA N° 1249803
  MIC: 0.25 µg/mL (≈ 0.835 µM)
[5]; H. influenzae IHMA N° 1254355
  MIC: 0.5 µg/mL (≈ 1.67 µM)
[5]; H. influenzae IHMA N° 1258580
  MIC: 0.5 µg/mL (≈ 1.67 µM)
[5]; H. influenzae IHMA N° 1262734
  MIC: 0.5 µg/mL (≈ 1.67 µM)
[5]; H. influenzae IHMA N° 1272723
  MIC: 0.5 µg/mL (≈ 1.67 µM)
[5]; H. influenzae IHMA N° 1286846
  MIC: 0.5 µg/mL (≈ 1.67 µM)
[5]; H. influenzae IHMA N° 1337530
  MIC: 1 µg/mL (≈ 3.34 µM)
[5]; H. influenzae IHMA N° 1440085
  MIC: 0.12 µg/mL (≈ 0.401 µM)
[5]; H. influenzae IHMA N° 1479509
  MIC: 0.5 µg/mL (≈ 1.67 µM)
[5]; H. influenzae IHMA N° 1952952
  MIC: 0.12 µg/mL (≈ 0.401 µM)
[5]; H. influenzae IHMA N° 2047461
  MIC: 0.5 µg/mL (≈ 1.67 µM)
[5]; MIC 0.5 µg/mL
  Cumulative % at MIC: 85.7%
  No. of isolates at MIC: 9
[5]; MIC 1 µg/mL
  Cumulative % at MIC: 100.0%
  No. of isolates at MIC: 2
[6]
  MIC, CLSI Range: 1 to 4 µg/mL
[7]; Enterococcus faecalis, ATCC29212, QC strain E. faecalis ATCC 29212, test date 2021-11-11, read-out: MIC
  MIC: 1 µg/mL (≈ 3.34 µM)
[7]; QC strain E. faecalis ATCC 29212, test date 2021-11-26
  MIC: 1 µg/mL (≈ 3.34 µM)

— publication PMC10041525, “New Dual Inhibitors of Bacterial Topoisomerases with Broad-Spectrum Antibacterial Activity and In Vivo Efficacy against Vancomycin-Intermediate Staphylococcus aureus” (Journal of Medicinal Chemistry, 2023)
